According to patent US20060148758A1, “Method for blood glucose control in a mammal by N-acylated glucosamines” (priority 2005, published 2006):

How the values were obtained:
Assay type in all cases: in vivo, rat
[1] = Incorporation of radioactivity from radiolabelled GlcNBu into plasma glucose, glucosamine or N-acetylglucosamine (HPLC of acetonitrile-soluble plasma fraction); settings: rats, oral or IP, plasma acetonitrile-soluble fractions up to 4 hour, amine column HPLC
Method: In order to test whether GlcNBu, in fact, was incorporated into serum glucose, or glucosamine, radiolabelled GlcNBu was prepared from [^3H] glucosamine and administered either orally or intra-peritoneally (IP) to rats, under identical conditions shown in FIG. 1. Plasma was sampled serially and plasma proteins were precipitated with acetonitrile and the radioactivity into the acetonitrile-soluble fraction containing GlcNBu metabolites was quantified. It can be seen that the radioactive profile from the oral administration of [^3H] GlcNBu is different than the glucose concentration profiles (FIG. 1). Acetonitrile-soluble fractions illustrated in FIG. 2, including the 4 hour time point were analyzed by HPLC, using an amine column and acetonitrile/water mixtures as the mobile phase (1 mL/min flow rate), Absorbance at 195 nm and radioactivity of 2 mL fractions were monitored. Radiolabelled and non-radiolabelled standards of GlcNBu, glucose, glucosamine, N-acetylglucosamine and various disaccharides were used as standards for the column. […] It is, therefore, unlikely that a significant proportion of orally fed GlcNBu is converted to glucose, glucosamine or N-acetylglucosamine, over the time course of the study. Also, glucose or glucosamine are not known to be converted into GlcNBu by animal tissues.

[2] = system: blood glucose; test: Blood glucose after oral gavage in 24 h fasted rats (glucose oxidase kit); settings: fasted 24 h, gavage of 0.736 M in 3 ml saline; for increase in blood glucose compared with saline and glucose groups: male rats, 0-150 min
Method: In the experiments performed and described herein, there were four groups of Spague Dawley type male rats, weighting approximately 300 g each, consisting of four (4) animals in each group. The animals were fed freely on standard rat chow and were then fasted for 24 hours. At the end of this period, said animals were lightly anaesthetized with nitrogen oxide and halothane, the body temperature being maintained with a heat lamp, and the femoral artery was cannulated, with a heparinized catheter and syringe, so that multiple blood samples could be obtained at serial time points. The test compounds were administered by gavaging the animals, said compounds having being dissolved in 3 ml of normal saline. The concentrations of the compounds administered to three groups of animals were: 0.736 M (550 mg in 3 ml of saline) of N-butyryl-D-glucosamine (designated as GlcNBu), or 0.736 M (398 mg in 3 ml of saline) of D-glucose (designated as Glc), or a combination of 0.736 M of GlcNBu and 0.736 M Glc dissolved together in 3 ml of saline. No compound was administered to the fourth group of animals (which consisted of a control group) and animals in this group were gavaged instead with 3 ml of normal saline.
Blood (0.4 ml) was collected at 10 min before the gavage (designated as −10 min in the accompanying FIG. 1), immedietly before the gavage (designated as 0 min) and at the following time points (timed in minutes after time 0) 5, 15, 30, 60, 90, 120 and 150, as shown in the accompanying figure. The glucose concentration in the blood was determined by a commercial glucose oxidase kit, designed for the determination of blood glucose in the blood of patients with diabetes. The determinations were done in triplicate for each time point and for each of the four animals in each of the four groups.
With reference to FIG. 1, each point of the graph represents the mean of the blood glucose concentrations obtained from the four rats in each group of animals. […]

[3] = Lean body mass and fat content by Dual Energy X-ray Absortiometry after 6 months daily oral feeding of control and ovariectomised rats; settings: daily oral feeding 6 months (GlcNBu 200 mg/kg/day or equimolar Glc)
Method: In another experiment, there were four Groups of Sprague Dawley type female rats, with eight animals in each group, of approximately 250 g in weight. Two of the said groups underwent surgical ovariectomy and will be referred as the ovariectomised Groups (OVX). […] One C group and one OVX Group were fed GlcNBu, 200 mg/kg/day orally and one C group and one OVX Group were fed an equimolar amount of Glc daily. The daily feedings continued for all of the animals for a period of 6 months. At the end of the 6 month period the animals were euthanized, blood was obtained by cardiac puncture for glucose measurements, 24 hours after the administration of the Glc or GlcNBu, and their body fat and lean body mass was estimated, using a Hologic 4500 Dual Energy X-ray Absortiometry instrument, with small animal software.
It was previously known that ovariectomy increases the body weight and the fat content of animals undergoing this procedure. The results for the lean body mass and the fat content are shown in Table 1 and presented as the mean values±the standard deviations (SD) for each group of Animals.

[4] = control (C, non-ovariectomised) female rats
[5] = ovariectomised (OVX) female rats

SMILES | incorporation of radioactivity into glucose, glucosamine or N-acetylglucosamine [1] | increase in blood glucose compared with saline and glucose groups [2] | increase in blood glucose compared with saline and glucose groups ([2]; listed as N-butyryl-D-glucosamine) | Fat content (g, mean ± SD) [3, 4] | Lean body mass (g, mean ± SD) [3, 4] | Fat content (g, mean ± SD) [3, 5] | Lean body mass (g, mean ± SD) [3, 5] | blood glucose concentration rose from time 0 to ([2]; male Sprague Dawley rats, followed to 150 min, mean of 4 rats)
CCCC(=O)N[C@H]1C(O)O[C@H](CO)[C@@H](O)[C@@H]1O (stereo partly drawn) [[^3H] GlcNBu] | no significant incorporation of radioactivity | – | – | – | – | – | – | –
CCCC(=O)N[C@H]1C(O)O[C@H](CO)[C@@H](O)[C@@H]1O (stereo partly drawn) [GlcNBu, N-butyryl-D-glucosamine] | – | higher than those gavaged with saline but lower than those rats gavaged with glucose | lower blood glucose | 74.57 ± 23.2 g | 264.02 ± 12.1 g | 126.08 ± 38.4 g | 307.52 ± 34.0 g | –
O=C[C@H](O)[C@@H](O)[C@H](O)[C@H](O)CO [Glc, D-glucose, reference compound] | – | – | – | 77.45 ± 21.0 g | 283.93 ± 21.5 g | 112.94 ± 30.9 g | 296.87 ± 6.2 g | ~7 mmol/L
